Test results reported in patent US20100297261A1, “Food Product and Fortification System Therefor” (priority 2005, published 2010).

Assays:
[1] = guinea pigs; split by α-glucosidase in brush border of small intestine; cited from earlier work
[2] = humans; split by hydrolases in the small intestine; cited from earlier work
[3] = In vitro estimation of iron dialyzability (dough, simulated gastrointestinal conditions)
Method: All glass vessels used were incubated over night in 10% (v/v) HNO3 in water and subsequently rinsed with demineralised water. […] The dough was divided in portions of 16 g and stored at −20° C. until dissolution experiments took place.
The dough portions were suspended in water and homogenized for 10 s with a Braun Blender (type 4142) set at maximum speed. Subsequently, water, 0.45 g pepsin and HCl were added to a yield a 90 ml suspension of dough in simulated gastric fluid of pH 2.0. A 20 g sample was taken from the homogenous suspension for determination of total iron. The suspension was transferred to the vessel of a dissolution apparatus (VanK1 VK700, Varian; United States Pharmacopoeia (USP) dissolution apparatus, type II. Conditions for rotations per minute enzyme types and concentrations etc. taken as in the USP; <711> Dissolution; USP26/NF21; 2003; p. 1578-1579). […]
Dialyzable iron (sum of Fe^2+ and Fe^3+) was determined using a Hitachi 912 Analyser and reagents for the analysis of iron in human serum based on FerroZine (Roche Diagnostics Nederland BV). […]
Dialyzable iron is expressed as the percentage of the total iron present in the digest, assuming that it had equilibrated across the dialysis membrane by the time the content of the dialysis bag was collected.

What does the source list for O=C1O[C@H]([C@@H](O)CO)C(O)=C1O[C@H]1O[C@H](CO)[C@@H](O)[C@H](O)[C@H]1O [AA-2G, 2-O-α-D-glucopyranosyl-L-ascorbic acid]?
Intestinal absorption of intact compound [1]: cannot be absorbed; Free ascorbic acid in the blood after consumption [2]: significant increase in free ascorbic acid in the blood

What does the source list for O=S(=O)([O-])[O-].[Fe+2] [Ferrous sulphate, ferrous sulphate]?
In vitro dialyzable Ionic iron (% of total iron) ([3]; dough with 50 mg/Kg iron from ferrous sulphate, Fe:enhancer 1:3, means ± SD of 4 or 5 experiments): 3.4 ± 1.8 % of total iron; Relative availability ([3]; relative to the availability of iron from FeSO4): 1.0
